Reference: the supplement of paper PMC6045584
± gives the standard deviation of the averaged measurements.

Legend:
AZD4547 = compound: COc1cc(CCc2cc(NC(=O)c3ccc(N4CC(C)NC(C)C4)cc3)n[nH]2)cc(OC)c1 [AZD4547]; assay: surviving fraction relative to DMSO-only wells; higher = less growth inhibition; conditions: exposure time: 5 days
How it was run: (§1)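 Each tumour cell line was screened three times, and only lines with replicate Pearson r >0.7 and median Z' >0.3 were kept. Cells in log phase were seeded at 250–500 per well in 384-well plates, left 24 hours, then exposed continuously for five days to inhibitors at 0.5, 1, 5, 10, 50, 100, 500 and 1000 nM. Viability was read as CellTiter-Glo luminescence, with surviving fraction normalised to the median of DMSO-only wells.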

EVEROLIMUS = compound: CO[C@H]1C[C@@H]2CC[C@@H](C)[C@@](O)(O2)C(=O)C(=O)N2CCCC[C@H]2C(=O)O[C@H]([C@H](C)C[C@@H]2CC[C@@H](OCCO)[C@H](OC)C2)CC(=O)[C@H](C)/C=C(\C)[C@@H](O)[C@@H](OC)C(=O)[C@H](C)C[C@H](C)/C=C/C=C/C=C/1C [EVEROLIMUS]; assay: as above; conditions: exposure time: 5 days
How it was run: as §1

| Test System | surviving fraction (AZD4547; 0.5 nM) | surviving fraction (AZD4547; 1 nM) | surviving fraction (AZD4547; 5 nM) | surviving fraction (AZD4547; 10 nM) | surviving fraction (AZD4547; 50 nM) | surviving fraction (AZD4547; 100 nM) | surviving fraction (AZD4547; 500 nM) | surviving fraction (AZD4547; 1000 nM) | surviving fraction (EVEROLIMUS; 0.5 nM) | surviving fraction (EVEROLIMUS; 1 nM) | surviving fraction (EVEROLIMUS; 5 nM) | surviving fraction (EVEROLIMUS; 10 nM) | surviving fraction (EVEROLIMUS; 50 nM) | surviving fraction (EVEROLIMUS; 100 nM) | surviving fraction (EVEROLIMUS; 500 nM) | surviving fraction (EVEROLIMUS; 1000 nM) |
| --- | --- | --- | --- | --- | --- | --- | --- | --- | --- | --- | --- | --- | --- | --- | --- | --- |
| HCC1806 BREAST | 1.04 ± 0.14 | 1.08 ± 0.048 | 1.12 ± 0.063 | 1.14 ± 0.06 | 1.16 ± 0.11 | 1.13 ± 0.05 | 0.996 ± 0.078 | 1 ± 0.17 | 0.918 ± 0.13 | 0.911 ± 0.043 | 0.888 ± 0.085 | 0.851 ± 0.051 | 0.784 ± 0.095 | 0.859 ± 0.083 | 0.669 ± 0.11 | 0.74 ± 0.12 |
| HCC1954 BREAST | 0.677 ± 0.04 | 0.711 ± 0.052 | 0.84 ± 0.087 | 1.01 ± 0.12 | 0.956 ± 0.023 | 0.887 ± 0.069 | 1.0088 ± 0.00035 | 1 ± 0.1 | 0.4 ± 0.05 | 0.376 ± 0.082 | 0.399 ± 0.074 | 0.428 ± 0.08 | 0.321 ± 0.014 | 0.308 ± 0.016 | 0.249 ± 0.039 | 0.275 ± 0.037 |
| HCT15 LARGE INTESTINE | 1.03 ± 0.026 | 1.07 ± 0.029 | 1.03 ± 0.042 | 1.07 ± 0.048 | 1.03 ± 0.042 | 1.08 ± 0.033 | 1.1 ± 0.044 | 1.1 ± 0.041 | 0.803 ± 0.066 | 0.702 ± 0.066 | 0.599 ± 0.07 | 0.511 ± 0.013 | 0.512 ± 0.055 | 0.511 ± 0.059 | 0.476 ± 0.046 | 0.542 ± 0.037 |
| HELA CERVIX | 1.04 ± 0.023 | 1.09 ± 0.035 | 1.07 ± 0.036 | 1.1 ± 0.032 | 1.08 ± 0.013 | 1.07 ± 0.03 | 1.08 ± 0.092 | 1.11 ± 0.13 | 1.04 ± 0.027 | 1.04 ± 0.014 | 1.04 ± 0.029 | 1.036 ± 0.0052 | 1.15 ± 0.023 | 1.14 ± 0.058 | 1.09 ± 0.036 | 1.16 ± 0.055 |
| HMLE3 BREAST | 0.986 ± 0.082 | 0.959 ± 0.04 | 0.882 ± 0.05 | 0.79 ± 0.025 | 0.57 ± 0.046 | 0.455 ± 0.053 | 0.418 ± 0.064 | 0.379 ± 0.032 | 1.02 ± 0.065 | 0.956 ± 0.02 | 0.813 ± 0.036 | 0.682 ± 0.016 | 0.455 ± 0.063 | 0.402 ± 0.036 | 0.322 ± 0.044 | 0.306 ± 0.019 |
| HMT3552 BREAST | 1.06 | 1.09 | 1.01 | 0.895 | 1.03 | 1.04 | 0.852 | 0.888 | 0.742 ± 0.097 | 0.6117 ± 0.0057 | 0.591 ± 0.021 | 0.598 ± 0.032 | 0.649 ± 0.016 | 0.616 ± 0.049 | 0.545 ± 0.05 | 0.549 ± 0.067 |
| HOS BONE | 1 ± 0.027 | 1.04 ± 0.011 | 1.04 ± 0.037 | 1.1 ± 0.042 | 1 ± 0.019 | 0.987 ± 0.021 | 0.9247 ± 0.0092 | 0.802 ± 0.039 | 0.885 ± 0.015 | 0.861 ± 0.0096 | 0.804 ± 0.018 | 0.742 ± 0.021 | 0.763 ± 0.011 | 0.766 ± 0.012 | 0.711 ± 0.033 | 0.721 ± 0.0092 |
| HOSMNG BONE | 1.01 ± 0.088 | 0.996 ± 0.12 | 1.02 ± 0.1 | 1.03 ± 0.035 | 0.964 ± 0.12 | 0.9967 ± 0.0029 | 0.945 ± 0.087 | 1.04 ± 0.097 | 1.03 ± 0.013 | 0.95 ± 0.051 | 0.951 ± 0.11 | 0.979 ± 0.07 | 1 ± 0.07 | 1.05 ± 0.1 | 0.999 ± 0.085 | 1.03 ± 0.027 |
| HS57T BREAST | 1.02 ± 0.051 | 1.01 ± 0.031 | 0.938 ± 0.04 | 0.829 ± 0.05 | 0.687 ± 0.029 | 0.744 ± 0.043 | 0.679 ± 0.035 | 0.628 ± 0.045 | 0.614 ± 0.029 | 0.535 ± 0.0078 | 0.497 ± 0.031 | 0.445 ± 0.016 | 0.447 ± 0.024 | 0.44 ± 0.042 | 0.373 ± 0.024 | 0.387 ± 0.045 |
| HS578T BREAST | 0.986 ± 0.061 | 1.05 ± 0.06 | 1.04 ± 0.025 | 1.01 ± 0.04 | 0.966 ± 0.056 | 0.94 ± 0.036 | 0.871 ± 0.03 | 0.911 ± 0.039 | 0.6 ± 0.095 | 0.598 ± 0.019 | 0.527 ± 0.047 | 0.524 ± 0.042 | 0.563 ± 0.08 | 0.545 ± 0.048 | 0.471 ± 0.044 | 0.468 ± 0.017 |
| HSSYII SYNOVIAL | 0.872 ± 0.069 | 0.813 ± 0.031 | 0.606 ± 0.04 | 0.434 ± 0.0065 | 0.295 ± 0.015 | 0.302 ± 0.0015 | 0.259 ± 0.0075 | 0.24 ± 0.013 | 0.781 ± 0.043 | 0.711 ± 0.066 | 0.616 ± 0.018 | 0.566 ± 0.025 | 0.476 ± 0.011 | 0.462 ± 0.025 | 0.416 ± 0.051 | 0.3632 ± 0.0025 |
| HT1080 SOFT TISSUE | 1.04 ± 0.048 | 1.03 ± 0.025 | 1.01 ± 0.031 | 1 ± 0.0068 | 0.979 ± 0.016 | 0.9753 ± 0.0087 | 0.936 ± 0.03 | 0.817 ± 0.065 | 1.04 ± 0.029 | 0.991 ± 0.013 | 0.733 ± 0.039 | 0.577 ± 0.045 | 0.496 ± 0.019 | 0.48 ± 0.029 | 0.477 ± 0.036 | 0.477 ± 0.036 |
| HU09 BONE | 0.983 ± 0.077 | 0.982 ± 0.16 | 1.03 ± 0.089 | 1.07 ± 0.061 | 0.797 ± 0.066 | 0.856 ± 0.026 | 0.624 ± 0.062 | 0.419 ± 0.031 | 0.669 ± 0.016 | 0.602 ± 0.037 | 0.513 ± 0.0057 | 0.512 ± 0.048 | 0.49 ± 0.011 | 0.42 ± 0.011 | 0.382 ± 0.016 | 0.39 ± 0.023 |
| JIMT1 BREAST | 0.99 ± 0.016 | 1.03 ± 0.04 | 1.018 ± 0.0059 | 1.02 ± 0.0097 | 1.032 ± 0.0075 | 1.07 ± 0.032 | 1.05 ± 0.02 | 1.06 ± 0.03 | 0.752 ± 0.021 | 0.663 ± 0.014 | 0.571 ± 0.034 | 0.561 ± 0.022 | 0.56 ± 0.034 | 0.55 ± 0.03 | 0.5 ± 0.016 | 0.494 ± 0.036 |
| JURKAT HAEMATOPOIETIC AND LYMPHOID TISSUE | 1 ± 0.027 | 1.06 ± 0.036 | 1.01 ± 0.026 | 1.04 ± 0.021 | 0.967 ± 0.034 | 0.951 ± 0.033 | 1.04 ± 0.018 | 1 ± 0.035 | 0.988 ± 0.023 | 0.917 ± 0.041 | 0.572 ± 0.0079 | 0.557 ± 0.033 | 0.433 ± 0.029 | 0.396 ± 0.034 | 0.326 ± 0.021 | 0.275 ± 0.018 |
| KPD BONE | 0.961 ± 0.049 | 0.945 ± 0.078 | 0.991 ± 0.094 | 0.984 ± 0.024 | 1 ± 0.067 | 0.956 ± 0.088 | 0.804 ± 0.039 | 0.642 ± 0.036 | 0.603 ± 0.044 | 0.529 ± 0.026 | 0.457 ± 0.016 | 0.422 ± 0.019 | 0.408 ± 0.025 | 0.384 ± 0.017 | 0.343 ± 0.012 | 0.338 ± 0.02 |
| LM7 BONE | 0.914 ± 0.098 | 0.959 ± 0.086 | 1.07 ± 0.044 | 0.982 ± 0.048 | 0.939 ± 0.064 | 0.985 ± 0.12 | 0.762 ± 0.034 | 0.571 ± 0.086 | 0.934 ± 0.053 | 0.87 ± 0.056 | 0.803 ± 0.1 | 0.785 ± 0.12 | 0.77 ± 0.085 | 0.752 ± 0.046 | 0.674 ± 0.087 | 0.609 ± 0.044 |
| MCF7 BREAST | 0.925 ± 0.062 | 0.918 ± 0.038 | 0.948 ± 0.074 | 0.931 ± 0.036 | 1 ± 0.069 | 0.9181 ± 0.0017 | 0.921 ± 0.066 | 0.924 ± 0.063 | 0.673 ± 0.049 | 0.597 ± 0.058 | 0.502 ± 0.046 | 0.495 ± 0.024 | 0.527 ± 0.011 | 0.505 ± 0.012 | 0.504 ± 0.021 | 0.514 ± 0.024 |
| MDAMB134 BREAST | 1.04 ± 0.28 | 1.04 ± 0.088 | 1.01 ± 0.083 | 0.922 ± 0.078 | 0.973 ± 0.14 | 0.899 ± 0.089 | 1.04 ± 0.028 | 1.05 ± 0.17 | 0.843 | 0.789 ± 0.071 | 0.63 ± 0.069 | 0.642 ± 0.11 | 0.616 ± 0.1 | 0.688 ± 0.11 | 0.569 ± 0.11 | 0.573 ± 0.09 |
| MDAMB157 BREAST | 0.981 ± 0.036 | 0.967 ± 0.12 | 0.932 ± 0.069 | 0.768 ± 0.035 | 0.642 ± 0.13 | 0.537 ± 0.048 | 0.562 ± 0.1 | 0.374 ± 0.039 | 0.696 ± 0.11 | 0.817 ± 0.043 | 0.747 ± 0.05 | 0.692 ± 0.011 | 0.634 ± 0.05 | 0.712 ± 0.052 | 0.598 ± 0.041 | 0.572 ± 0.095 |
